Reference: ChEMBL document CHEMBL1201862, “PubChem BioAssay data set” (2004)
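Cultured in 96-well plates, cells were exposed to test compound for 48 hours across five concentrations. Abbreviation: GI50, concentration required for 50% inhibition of growth.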 Active and inactive are the calls of the source. No stated cut-off is given here; in the data, active = GI50 up to about 1.1 µM and inactive = higher.

Assays:
Test in all cases: NCI anticancer screen, dose series, 48 h
OVCAR-3 = test system: OVCAR-3
UACC-62 = test system: UACC-62
A498 = test system: A498
OVCAR-5 = test system: OVCAR-5
HL-60 = test system: HL-60
MDA-MB-231 = test system: MDA-MB-231
SNB-75 = test system: SNB-75
NCI-H226 = test system: NCI-H226
NCI-H522 = test system: NCI-H522
RPMI-8226 = test system: RPMI-8226
SW-620 = test system: SW-620
DU-145 = test system: DU-145
SF-268 = test system: SF-268
KM12 = test system: KM12
HOP-62 = test system: HOP-62
SK-MEL-5 = test system: SK-MEL-5
IGROV-1 = test system: IGROV-1
NCI-H23 = test system: NCI-H23
A549 = test system: A549
HOP-92 = test system: HOP-92

| SMILES | GI50 (OVCAR-3) | GI50 (UACC-62) | GI50 (A498) | GI50 (OVCAR-5) | GI50 (HL-60) | GI50 (MDA-MB-231) | GI50 (SNB-75) | GI50 (NCI-H226) | GI50 (NCI-H522) | GI50 (RPMI-8226) | GI50 (SW-620) | GI50 (DU-145) | GI50 (SF-268) | GI50 (KM12) | GI50 (HOP-62) | GI50 (SK-MEL-5) | GI50 (IGROV-1) | GI50 (NCI-H23) | GI50 (A549) | GI50 (HOP-92) |
| --- | --- | --- | --- | --- | --- | --- | --- | --- | --- | --- | --- | --- | --- | --- | --- | --- | --- | --- | --- | --- |
| COc1c2c(c3c(c1CCC(=O)O)OC(C)(C)C=C3)OC(C)(C)C=C2 | 58.7 µM (inactive) | > 100 µM (inactive) | > 100 µM (inactive) | > 100 µM (inactive) | 50.8 µM (inactive) | > 100 µM (inactive) | > 100 µM (inactive) | 83.4 µM (inactive) | 55.1 µM (inactive) | 48.4 µM (inactive) | > 100 µM (inactive) | > 100 µM (inactive) | > 100 µM (inactive) | > 100 µM (inactive) | > 100 µM (inactive) | 65.2 µM (inactive) | > 100 µM (inactive) | > 100 µM (inactive) | 54.5 µM (inactive) | – |
| CCCCN(CCCC)c1ccc(/N=N/c2ccc(S(=O)(=O)O)cc2)cc1 | 30.1 µM (inactive) | > 100 µM (inactive) | 31.4 µM (inactive) | 60.8 µM (inactive) | 19.8 µM (inactive) | 25.4 µM (inactive) | 11.7 µM (inactive) | – | – | 20.4 µM (inactive) | 33 µM (inactive) | 39.2 µM (inactive) | > 100 µM (inactive) | 12.8 µM (inactive) | – | 16.2 µM (inactive) | 14.7 µM (inactive) | 20.6 µM (inactive) | 39.8 µM (inactive) | 7 µM (inactive) |
| O=C(O)CSC1=NC(=O)C2(NN1)c1ccccc1-c1ccccc12 | – | > 10 µM (inactive) | – | – | > 10 µM (inactive) | > 10 µM (inactive) | > 10 µM (inactive) | > 10 µM (inactive) | > 10 µM (inactive) | > 10 µM (inactive) | > 10 µM (inactive) | > 10 µM (inactive) | > 10 µM (inactive) | > 10 µM (inactive) | > 10 µM (inactive) | > 10 µM (inactive) | > 10 µM (inactive) | > 10 µM (inactive) | > 10 µM (inactive) | > 10 µM (inactive) |
| COc1ccc(-c2nc(Nc3ccccc3)sc2Cc2sc(Nc3ccccc3)nc2-c2ccc(OC)cc2)cc1 | 17.1 µM (inactive) | > 100 µM (inactive) | 25.2 µM (inactive) | > 100 µM (inactive) | 0.787 µM (active) | > 100 µM (inactive) | > 100 µM (inactive) | > 100 µM (inactive) | – | 1.8 µM (inactive) | 67.5 µM (inactive) | > 100 µM (inactive) | > 100 µM (inactive) | 8.59 µM (inactive) | > 100 µM (inactive) | > 100 µM (inactive) | > 100 µM (inactive) | 37.7 µM (inactive) | > 100 µM (inactive) | – |
| COc1ccc(NC(=S)Nc2cc(C)ccn2)cc1 | – | > 100 µM (inactive) | > 100 µM (inactive) | – | > 100 µM (inactive) | > 100 µM (inactive) | > 100 µM (inactive) | > 100 µM (inactive) | – | > 100 µM (inactive) | > 100 µM (inactive) | > 100 µM (inactive) | > 100 µM (inactive) | > 100 µM (inactive) | > 100 µM (inactive) | > 100 µM (inactive) | > 100 µM (inactive) | > 100 µM (inactive) | – | > 100 µM (inactive) |
| O=C(N/N=C/c1ccc(Cl)cc1)c1cc(I)cc(I)c1O | > 100 µM (inactive) | – | 33.3 µM (inactive) | > 100 µM (inactive) | > 100 µM (inactive) | > 100 µM (inactive) | 94.2 µM (inactive) | > 100 µM (inactive) | – | > 100 µM (inactive) | > 100 µM (inactive) | > 100 µM (inactive) | – | > 100 µM (inactive) | > 100 µM (inactive) | > 100 µM (inactive) | > 100 µM (inactive) | > 100 µM (inactive) | > 100 µM (inactive) | 92.3 µM (inactive) |
| O=S(=O)(O)c1ccc(O)c2ncc(Cl)cc12 | > 100 µM (inactive) | > 100 µM (inactive) | > 100 µM (inactive) | > 100 µM (inactive) | – | > 100 µM (inactive) | > 100 µM (inactive) | > 100 µM (inactive) | – | 51.1 µM (inactive) | > 100 µM (inactive) | > 100 µM (inactive) | – | > 100 µM (inactive) | > 100 µM (inactive) | > 100 µM (inactive) | > 100 µM (inactive) | > 100 µM (inactive) | > 100 µM (inactive) | > 100 µM (inactive) |
| O=c1nc2n(cc1/C=C\Br)C1CC(O)C(CO2)O1 (centres undefined) | > 100 µM (inactive) | > 100 µM (inactive) | 49.9 µM (inactive) | > 100 µM (inactive) | 0.792 µM (active) | > 100 µM (inactive) | > 100 µM (inactive) | > 100 µM (inactive) | – | > 100 µM (inactive) | > 100 µM (inactive) | > 100 µM (inactive) | > 100 µM (inactive) | > 100 µM (inactive) | > 100 µM (inactive) | > 100 µM (inactive) | > 100 µM (inactive) | > 100 µM (inactive) | > 100 µM (inactive) | – |
| N=C(N)NCCCC(NC(=O)OCCCCCCn1ccc(N)nc1=O)C(=O)O (centres undefined) | > 100 µM (inactive) | > 100 µM (inactive) | > 100 µM (inactive) | > 100 µM (inactive) | > 100 µM (inactive) | > 100 µM (inactive) | > 100 µM (inactive) | 0.418 µM (active) | – | > 100 µM (inactive) | > 100 µM (inactive) | > 100 µM (inactive) | > 100 µM (inactive) | > 100 µM (inactive) | > 100 µM (inactive) | – | > 100 µM (inactive) | > 100 µM (inactive) | > 100 µM (inactive) | > 100 µM (inactive) |
| Nc1ccccc1CCN1CCN(CCCc2ccccc2)CC1 | > 100 µM (inactive) | 84.3 µM (inactive) | 74.5 µM (inactive) | > 100 µM (inactive) | 17.8 µM (inactive) | 61.1 µM (inactive) | – | 44.5 µM (inactive) | 39.2 µM (inactive) | 27.8 µM (inactive) | 95.3 µM (inactive) | > 100 µM (inactive) | 99.5 µM (inactive) | 52.1 µM (inactive) | > 100 µM (inactive) | 17.9 µM (inactive) | 50.6 µM (inactive) | > 100 µM (inactive) | 70.8 µM (inactive) | – |
| Cc1nc(-c2ccc([N+](=O)[O-])cc2)cn2c1nc1ccccc12 | > 100 µM (inactive) | 15.9 µM (inactive) | > 100 µM (inactive) | > 100 µM (inactive) | > 100 µM (inactive) | > 100 µM (inactive) | 24.6 µM (inactive) | > 100 µM (inactive) | – | > 100 µM (inactive) | > 100 µM (inactive) | > 100 µM (inactive) | > 100 µM (inactive) | > 100 µM (inactive) | 36.5 µM (inactive) | – | > 100 µM (inactive) | > 100 µM (inactive) | > 100 µM (inactive) | 70.5 µM (inactive) |
| CC1CN=C(Nc2cccc(F)c2)S1 (centres undefined) | > 100 µM (inactive) | > 100 µM (inactive) | – | > 100 µM (inactive) | > 100 µM (inactive) | 3.99 µM (inactive) | > 100 µM (inactive) | > 100 µM (inactive) | > 100 µM (inactive) | > 100 µM (inactive) | > 100 µM (inactive) | > 100 µM (inactive) | > 100 µM (inactive) | > 100 µM (inactive) | > 100 µM (inactive) | > 100 µM (inactive) | > 100 µM (inactive) | > 100 µM (inactive) | > 100 µM (inactive) | > 100 µM (inactive) |
| CCN(CC)CCN1C(=O)C(=O)N(c2cccc3ccccc23)C1=O | > 10 µM (inactive) | > 10 µM (inactive) | > 10 µM (inactive) | > 10 µM (inactive) | > 10 µM (inactive) | > 10 µM (inactive) | > 10 µM (inactive) | > 10 µM (inactive) | > 10 µM (inactive) | > 10 µM (inactive) | > 10 µM (inactive) | > 10 µM (inactive) | > 10 µM (inactive) | > 10 µM (inactive) | > 10 µM (inactive) | > 10 µM (inactive) | > 10 µM (inactive) | > 10 µM (inactive) | > 10 µM (inactive) | – |
| CCOc1cc(C(=O)O)c2c(ccc3ccc(OC)c(OC)c32)c1OC | > 100 µM (inactive) | > 100 µM (inactive) | – | > 100 µM (inactive) | > 100 µM (inactive) | > 100 µM (inactive) | > 100 µM (inactive) | > 100 µM (inactive) | > 100 µM (inactive) | > 100 µM (inactive) | > 100 µM (inactive) | > 100 µM (inactive) | > 100 µM (inactive) | > 100 µM (inactive) | > 100 µM (inactive) | > 100 µM (inactive) | > 100 µM (inactive) | > 100 µM (inactive) | > 100 µM (inactive) | > 100 µM (inactive) |
| CCCC(=O)NC(Nc1cc(C)ccn1)(C(=O)OCC)C(F)(F)F (centres undefined) | > 100 µM (inactive) | > 100 µM (inactive) | – | > 100 µM (inactive) | > 100 µM (inactive) | > 100 µM (inactive) | > 100 µM (inactive) | > 100 µM (inactive) | > 100 µM (inactive) | > 100 µM (inactive) | > 100 µM (inactive) | > 100 µM (inactive) | > 100 µM (inactive) | > 100 µM (inactive) | > 100 µM (inactive) | > 100 µM (inactive) | > 100 µM (inactive) | > 100 µM (inactive) | > 100 µM (inactive) | 91 µM (inactive) |
